Values quoted from earlier work, collected in patent publication US20140322314A1, “Omega-3 Fatty Acid Formulations for Use as Pharmaceutical Treatment” (Matinas BioPharma, Inc., priority 2013, published 2014).

Conditions: in vivo

In the case of `CC(C)n1c(/C=C/C(O)CC(O)CC(=O)O)c(-c2ccc(F)cc2)c2ccccc21` (centres unmarked) [fluvastatin], the bioavailable is listed as “approximately 24%”.
For `CC[C@H](C)C(=O)O[C@H]1C[C@@H](C)C=C2C=C[C@H](C)[C@H](CC[C@@H]3C[C@@H](O)CC(=O)O3)[C@H]21` [lovastatin], the absorbed at rates is given as “about 30%”.
